Biological target: T1, CETP (Homo sapiens, UniProt P11597)
T1 construct: Human plasma (50 μL), assay buffer (35 μL) and test compound; tissue New Drug Development Research Center, Inc; host or cells: human EDTA plasma from healthy men
T1 sequence (P11597 18-493): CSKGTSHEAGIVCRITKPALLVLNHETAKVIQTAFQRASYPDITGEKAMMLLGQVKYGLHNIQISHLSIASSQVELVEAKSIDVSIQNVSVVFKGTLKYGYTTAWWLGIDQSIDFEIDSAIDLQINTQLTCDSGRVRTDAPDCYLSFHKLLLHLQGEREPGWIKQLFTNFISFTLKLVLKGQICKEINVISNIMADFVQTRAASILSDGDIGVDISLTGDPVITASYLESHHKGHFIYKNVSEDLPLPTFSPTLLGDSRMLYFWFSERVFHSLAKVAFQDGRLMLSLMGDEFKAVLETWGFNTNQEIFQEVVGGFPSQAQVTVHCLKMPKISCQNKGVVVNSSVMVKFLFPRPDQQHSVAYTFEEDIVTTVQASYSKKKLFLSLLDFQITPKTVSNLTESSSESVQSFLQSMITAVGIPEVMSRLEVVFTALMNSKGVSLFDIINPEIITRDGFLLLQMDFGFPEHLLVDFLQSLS
Assay: in vitro CETP activity in human plasma (BODIPY-CE donor microemulsion, fluorescence)
Type: biochemical
Description: For purposes of detecting the in vitro and in vivo CETP activity, human pro-apolipoprotein AI (pro-apoAI) and donor microemulsion are prepared as follows. The cDNA of human pro-apoAI (NCBI accession number: NM_000039) is cloned from human liver Quick-Clone™ cDNA (Clontech, CA) and inserted to a pET28a vector (Novagen, Germany) for bacterial expression. Expressed protein as a fusion protein with 6×His-tag at N-terminus in BL-21 Gold (DE3) (Strategene, CA) is purified using HiTrap Chelating (GE Healthcare, CT). Pro-apoAI containing microemulsion as a donor particle is prepared following previous reports (J. Biol. Chem., 280:14918-22). Glyceryl trioleate (62.5 ng, Sigma, Mo.), 3-sn-phosphatidylcholine (583 ng, Wako Pure Chemical Industries, Japan), and cholesteryl BODIPY® FL C12 (250 ng, Invitrogen, CA) are dissolved in 1 mL of chloroform. The solution is evaporated, then residual solvent is removed in vacuum for more than 1 hr. The dried lipid mixture is dissolved in 500 μL of the assay buffer (50 mM Tris-HCl (pH7.4) containing 150 mM NaCl and 2 mM EDTA) and sonicated at 50° C. with a microtip (MICROSON™ ULTRASONIC CELL DISRUPTOR, Misonix, Farmingdale, N.Y.) at output power 006 for 2 min. After sonication, the solution is cooled to 40° C., added to 100 μg of human pro-apoAI, and sonicated at output power 004 for 5 min at 40° C. The solution, BODIPY-CE microemulsion as a donor molecule is stored at 4° C. after filtration through a 0.45 μm PVDF filter.
For purposes of detecting in vitro CETP activity, human EDTA plasma samples from healthy men are purchased from New Drug Development Research Center, Inc. Donor solution is prepared by a dilution of donor microemulsion with assay buffer. Human plasma (50 μL), assay buffer (35 μL) and test compound dissolved in dimethylsulfoxide (1 μL) are added to each well of 96 well half area black flat bottom plate. The reaction is started by the addition of donor solution (14 μL) into each well. Fluorescence intensities are measured every 30 min at 37° C. with excitation wave length of 485 nm and emission wavelength of 535 nm. The CETP activity (Fl/min) is defined as the changes of fluorescence intensity from 30 to 90 min. The IC50 value is obtained by the logistic equation (Y=Bottom+(Top-Bottom)/(1+(x/IC50)̂Hill slope) using Origin software, version 7.5 SR3.

SMILES: CCN(CC1CCCC1)c1ncc(I)cc1CN(Cc1cc(C(F)(F)F)cc(C(F)(F)F)c1)c1nnn(C)n1 [Compound 6, (3-{[(3,5-Bis-trifluoromethyl-benzyl)-(2-methyl-2H-tetrazol-5-yl)-amino]-methyl}-5-iodo-pyridin-2-yl)-cyclopentylmethyl-ethyl-amine]
- IC50: 230 nM

SMILES: CCN(CC1CCCC1)c1ncc(C)cc1CN(Cc1cc(C(F)(F)F)cc(C(F)(F)F)c1)c1nnn(C)n1 [Compound 5, (3-{[(3,5-Bis-trifluoromethyl-benzyl)-(2-methyl-2H-tetrazol-5-yl)-amino]-methyl}-5-methyl-pyridin-2-yl)-cyclopentylmethyl-ethyl-amine]
- IC50: 300 nM

SMILES: CCCCN(C)c1cnc(N(CC)CC2CCCC2)c(CN(Cc2cc(C(F)(F)F)cc(C(F)(F)F)c2)c2nnn(C)n2)c1 [Compound 7, 3-{[(3,5-Bis-trifluoromethyl-benzyl)-(2-methyl-2H-tetrazol-5-yl)-amino]-methyl}-N*5*-butyl-N*2*-cyclopentylmethyl-N*2*-ethyl-N*5*-methyl-pyridine-2,5-diamine]
- IC50: 720 nM

SMILES: CCN(CC1CCCC1)c1ncc(N(C)C(C)=O)cc1CN(Cc1cc(C(F)(F)F)cc(C(F)(F)F)c1)c1nnn(C)n1 [Compound 2, N-[5-{[(3,5-Bis-trifluoromethyl-benzyl)-(2-methyl-2H-tetrazol-5-yl)-amino]-methyl}-6-(cyclopentylmethyl-ethyl-amino)-pyridin-3-yl]-N-methyl-acetamide]
- IC50: 370 nM

SMILES: CCN(CC1CCCC1)c1ncc(SC)cc1CN(Cc1cc(C(F)(F)F)cc(C(F)(F)F)c1)c1nnn(C)n1 [Compound 3, (3-{[(3,5-Bis-trifluoromethyl-benzyl)-(2-methyl-2H-tetrazol-5-yl)-amino]-methyl}-5-methylsulfanyl-pyridin-2-yl)-cyclopentylmethyl-ethyl-amine]
- IC50: 140 nM

SMILES: CCN(CC1CCCC1)c1ncc(N2CCC2)cc1CN(Cc1cc(C(F)(F)F)cc(C(F)(F)F)c1)c1nnn(C)n1 [Compound 1, (5-Azetidin-1-yl-3-{[(3,5-bis-trifluoromethyl-benzyl)-(2-methyl-2H-tetrazol-5-yl)-amino]-methyl}-pyridin-2-yl)-cyclopentylmethyl-ethyl-amine]
- IC50: 260 nM

SMILES: CCN(CC1CCCC1)c1ncc([N+](=O)[O-])cc1CN(Cc1cc(C(F)(F)F)cc(C(F)(F)F)c1)c1nnn(C)n1 [Compound 8, (3-{[(3,5-Bis-trifluoromethyl-benzyl)-(2-methyl-2H-tetrazol-5-yl)-amino]-methyl}-5-nitro-pyridin-2-yl)-cyclopentylmethyl-ethyl-amine]
- IC50: 630 nM

SMILES: CCN(CC1CCCC1)c1nc(C)c(Br)cc1CN(Cc1cc(C(F)(F)F)cc(C(F)(F)F)c1)c1nnn(C)n1 [Compound 4, (3-{[(3,5-Bis-trifluoromethyl-benzyl)-(2-methyl-2H-tetrazol-5-yl)-amino]-methyl}-5-bromo-6-methyl-pyridin-2-yl)-cyclopentylmethyl-ethyl-amine]
- IC50: 110 nM
